Assays:
Sprague-Dawley rats = settings: rat, in vivo, iv, 90 ug/kg
[1] = Quantum yield measurement
Procedure: Fluorescence traces were recorded on a PTI QuantaMaster steady-state spectrofluorimeter operated by FelixGX 4.2.2 software, with 5 nm excitation and emission slit widths, 0.1 s integration rate, and enabled emission correction.

excretion into bile / biliary clearance (in words) (Sprague-Dawley rats) | quantum yield [1] | Structure (SMILES)
excretes rapidly into bile |  | CC1(C)C(=CC=C2CCCC(C=CC3=[N+](CCCCCC(=O)[O-])c4ccc(S(=O)(=O)[O-])cc4C3(C)C)=C2Oc2ccc(S(=O)(=O)[O-])cc2)N(CCCCS(=O)(=O)[O-])c2ccc(S(=O)(=O)[O-])cc21.[Na+].[Na+].[Na+].[Na+] [IRDye® 800CW]
excellent biliary clearance |  | CN(CCOC1=C(/C=C/C2=[N+](CCCCS(=O)(=O)[O-])c3ccccc3C2(C)C)CCC/C1=C\C=C1\N(CCCCS(=O)(=O)O)c2ccccc2C1(C)C)C(=O)CCCC(=O)O [FNIR-Ar-H_N-BS]
 | 9% | CC1(C)C(/C=C/C=C/C=C/C=C2\N(CCCCS(=O)(=O)O)c3ccc4ccccc4c3C2(C)C)=[N+](CCCCS(=O)(=O)[O-])c2ccc3ccccc3c21 [ICG, indocyanine green]

From patent publication US11787764B2, “Heptamethine cyanines for use as fluorescent markers of the biliary and renal systems” (CHILDREN'S NATIONAL MEDICAL CENTER, priority 2018, dated 2023)
